Here are results for one compound from patent US9969743B2, “Urea and amide derivatives of aminoalkylpiperazines and use thereof” (Southern Research Institute, priority 2012, dated 2018).

Each structure is given as a SMILES string.

Common to all, as to format: in vivo
Assay [1] has as its system Long Evans rats. The assay can be described thus: Cocaine-induced locomotor activity. Conditions: 3.75, 7.5 or 15 mg/kg 10 minutes before 10 mg/kg of cocaine; p<0.05. On the procedure:
(§1) In Vivo Studies. Effect on Locomotor Activity. These studies were performed using Long Evans rats using standard protocols. Locomotor activity chambers measuring 43×43×30 cm (l×w×h) were used for the locomotor activity experiments. Each chamber was equipped with eight photo-emitters positioned along the length of the chamber 6 cm above the floor, each paired directly opposite a photocell. Locomotor activity counts were registered when adjacent beams were broken consecutively. Before receiving any drug, the animals (n=96) were placed in locomotor activity chambers for habituation, for 2 hours per day for 3 consecutive days. Based on the locomotor activity score obtained during the third habituation session, animals were assigned into one of […]. […] For the 113 alone experiments, each of the four groups received one of 4 doses of 113 (0, 3.75, 7.5 or 15 mg/kg) 10 minutes prior to placement in the activity chambers. For the 113 cocaine interaction experiments, each of 4 groups were injected with one of the 4 doses of the compound (0, 3.75, 7.5 or 15 mg/kg) 10 minutes before receiving 10 mg/kg of cocaine as the second injection. […] The locomotor counts in the 113 alone and 113/cocaine experiments were analyzed using two separate mixed-design ANOVAs with 113 dose (between-groups) and 5-min bins (repeated measures) as factors. […]

The subject of assay [2] is Rats. In words: Cue-induced reinstatement of cocaine-seeking. Conditions: ip injection of one of 3 doses 20 minutes before 1-h reinstatement session. The method, then: In Vivo Studies. Effect on Reinstatement. Rats were trained to self-administer cocaine (1.0 mg/kg/injection) under a FR1 schedule of reinforcement in daily 3-h sessions and, after stable responding was established (as described above) the schedule was changed to FR3. After stable responding under the FR3 schedule was established, extinction training began. Stable responding was defined as follows: 12 consecutive sessions in which total rewards per session was greater than 20 and in which total rewards per session for the last three sessions was within ±10% of the mean of the three sessions. […] After extinction criteria were met each rat was tested in one 1-h reinstatement session; each rat received an ip injection of vehicle or one of 3 doses of the test compound and 20 minutes later was placed in the operant chamber. At the start of the reinstatement session the cocaine-associated cues (light on for 20 s and pump on for 4.5 s) were presented twice, once at 25 sec and again at 2 min into the session. Presses on the active lever illuminated the light and activated the pump.

For assay [3], the system named is Long Evans rats. In words: Spontaneous locomotor activity. As to conditions: all doses tested (3.75, 7.5, 15 mg/kg), any time during the test sessions. The method, then:
as §1

Assay [4] has as its system Long Evans rats. In words: Food self-administration under PR schedule of reinforcement. As to conditions: 3.75 mg dose vs 0, t(7)=0.43, p=0.66. The method, then: In Vivo Studies. Effect on Food-Self administration. These studies were performed using Long Evans rats using standard protocols. Training and testing took place in ventilated and sound-attenuated operant chambers measuring 30×21×18 cm. Each chamber contained two levers, one light above each of the levers, and a food trough. Each lever was positioned 2.5 cm from the rod floor and the food trough (measuring 5×5 cm) was centered between the two levers. A different set of animals (n=8) was trained to press a lever reinforced by food under a FR1 schedule of reinforcement. […] Percentage of baseline BPs for food self-administration was analyzed using a dependent measures t-test comparing the 0 and 3.75 mg doses of 113.

For assay [5], the system named is Long Evans rats. The assay can be described thus: Cocaine self-administration under PR schedule of reinforcement. On the procedure: In Vivo Studies. Effect on Cocaine-Self administration. These studies were performed using Long Evans rats using standard protocols (Quinlan M. G. et al. Psychopharmacol. 2004, 175, 53-59; Ranaldi, R. et al. Behav. Pharmacol. 2011, 22, 347-353). Cocaine self-administration sessions were conducted in sixteen operant chambers; eight measuring 30×22×27 cm (l×w×h) and the other eight measuring 26×26×30 cm (l×w×h). Each chamber was situated inside a sound-attenuating box and was equipped with two retractable levers, a white light above each lever, and a tether. Polyethylene tubing, covered by the tether, connected the animal, through a fluid swivel, to a syringe in a syringe pump (Razel, 3.33 rpm). […] Each animal was tested with one dose of the D3 antagonist, randomly determined, at as many of the three cocaine doses as possible. After a particular test the animal's cocaine dose was changed to another one (randomly determined) and its baseline BP on the new dose was established. BP during the test session was expressed as the percentage of the average BP obtained during the last three baseline sessions. Percentage of baseline BP and final ratio (i.e. the number of lever presses required for the BP infusion) were analyzed using separate two-way analyses of variance (ANOVAs) with dose of 113 and dose of cocaine as between-groups factors. […]

In the case of `CC(C)(C)c1nc(N2CCN(CCCCNC(=O)c3cn4ccccc4n3)CC2)cc(C(F)(F)F)n1` [Compound 113, N-(4-(4-(2-(tert-Butyl)-6-(trifluoromethyl)pyrimidin-4-yl)piperazin-1-yl)butyl)imidazo[1,2-a]pyridine-2-carboxamide], in assay [1], the cocaine-induced locomotor activity entry is given as “significantly reduce cocaine-induced locomotor activity in a dose-related fashion”. Further, in assay [2], the “cue-induced reinstatement (presses on the active lever)” value is reported as “strongly reduced in a dose-related fashion”. For the same compound, in assay [3], the “spontaneous locomotor activity, overall” value was “none of the doses tested produced significant effects on spontaneous locomotor activity”. Moreover, in assay [4], the “percentage of baseline BP for food self-administration” value is “did not affect food self-administration”. In assay [5] (3.75, 7.5 and 15 mg/kg intraperitoneally 10 minutes prior to session, cocaine 0.375, 0.75 or […]), the “percentage of baseline BP for cocaine under PR schedule, dose relation” value was “dose-related reduction in the percentage of baseline BPs”. Besides, the “percentage of baseline BPs for cocaine compared to vehicle (Tukey post hoc)” value in assay [5] (3.75, 7.5 or 15 mg of 113, ps<0.05) is “significant reductions in the percentage of baseline BPs”.
